Measured values published in the NIST ThermoML archive (doi:10.1016/j.jct.2018.06.026).
± gives the expanded uncertainty stated by the source.

Experiments:
[1] = wn = mass fraction of the nth substance listed; settings: 100 kPa, Liquid, Vibrating tube method
[2] = refractive index (Na D-line) (dimensionless); wn = mass fraction of the nth substance listed; settings: 100 kPa, Liquid, Standard Abbe refractometry

- mass density ([1]; 293.15 K, w1 = 0.265): 1200.01 ± 10 kg/m3
- mass density ([1]; 313.15 K, w1 = 0.2717): 1181.06 ± 10 kg/m3
- refractive index ([2]; 293.15 K, w1 = 0.265): 1.38027 ± 0.002
- refractive index ([2]; 313.15 K, w1 = 0.2717): 1.37386 ± 0.002
Compound: [Cl-].[Na+] [sodium chloride] + O
